Measured values reported in US8518968B2, “Hydrazone and diacyl hydrazine compounds and methods of use” (The United States of America, as represented by the …, priority 2009, dated 2013).
Where two headings read alike, the source gives them in different places.

Experiments:
[1] = system: p97 mutants (p97ΔN, p97ΔD2); experiment: Avidin bead pull-down of p97 mutants with immobilized B-NFC; type: binding; conditions: p97ΔN or p97ΔD2, avidin beads
[2] = system: JEKO-1 cells
[3] = system: 293T cells; experiment: Whole genome array gene expression in 293T cells; type: cell-based, human; conditions: 10 μM, 10 h
Procedure: To further confirm that both EerI and 5-NA can influence p97 function in cells, the gene expression pattern of EerI-treated cells is compared to that of 5-NA-treated cells using whole genome array hybridization. […] These studies are performed in 293T cells because they are highly transfectable, making them well suited for genetic manipulation by siRNA. Cells were treated with EerI, CBU-028, or 5-NA each at 10 μM in duplicates for 10 h. Total RNA was extracted using TRIzol reagent (Invitrogen, Carlsbad, Calif.), and subsequently purified using an RNeasy MinElute Cleanup kit (QIAGEN, Valencia, Calif.). For array hybridization, RNA samples were processed and analyzed by The National Institute of Diabetes and Digestive and Kidney Diseases (NIDDK) Microarray Core Facility. The Affymetrix gene expression analysis array for the human HG-U133A—2—0 was used (Affymetrix). The microarray signals were analyzed using the Affymetrix RMA algorithm. […] To determine specific pathways, gene pathway analysis were conducted using software from Genego, Inc., using the statistical significant ANOVA gene list (p<0.05, fold change >1.5) represented on the chip. Microarray data is MIAME compliant and that the raw data has been deposited in the Gene Expression Omnibus (GEO) database (accession no. GSE23849).

[4] = system: ATF3, ATF4, NOXA; experiment: Immunoblot of ER stress markers, NOXA, ubiquitin and histone H2A in JEKO-1 cells; type: cell-based; conditions: for expression level of ATF3, ATF4 and NOXA: 8 hrs
[5] = system: TCRα-YFP; experiment: Stabilization of ERAD substrate TCRα-YFP in 293T cells; type: cell-based; conditions: 293T cells stably expressing TCRα-YFP, 10 μM (10 mM in method), 10 h
Procedure: 293T cells stably expressing TCRα-YFP are treated with the indicated compounds ([…]) or as a control with DMSO for 10 h. Cells are lysed in RIPA buffer (50 mM Tris, pH 7.5, 1% NP40, 0.1% SDS, 0.5% sodium deoxycholate, 150 mM sodium chloride, 2 mM EDTA and a protease inhibitor cocktail). TCRα-YFP is immunoprecipitated from the cell extract using an anti-green fluorescent protein (GFP) antibody. The precipitated material is analyzed by SDS-PAGE and immunoblotting with antibodies against uUb and GFP. The whole cell extracts are also analyzed by SDS-PAGE and immunoblotting with antibodies against p. 97.

[6] = molecular target: T1, p97 (Homo sapiens, UniProt P55072); experiment: Limited trypsin digestion of purified p97; conditions: purified p97 pre-incubated with compound
T1 sequence (P55072 whole entry): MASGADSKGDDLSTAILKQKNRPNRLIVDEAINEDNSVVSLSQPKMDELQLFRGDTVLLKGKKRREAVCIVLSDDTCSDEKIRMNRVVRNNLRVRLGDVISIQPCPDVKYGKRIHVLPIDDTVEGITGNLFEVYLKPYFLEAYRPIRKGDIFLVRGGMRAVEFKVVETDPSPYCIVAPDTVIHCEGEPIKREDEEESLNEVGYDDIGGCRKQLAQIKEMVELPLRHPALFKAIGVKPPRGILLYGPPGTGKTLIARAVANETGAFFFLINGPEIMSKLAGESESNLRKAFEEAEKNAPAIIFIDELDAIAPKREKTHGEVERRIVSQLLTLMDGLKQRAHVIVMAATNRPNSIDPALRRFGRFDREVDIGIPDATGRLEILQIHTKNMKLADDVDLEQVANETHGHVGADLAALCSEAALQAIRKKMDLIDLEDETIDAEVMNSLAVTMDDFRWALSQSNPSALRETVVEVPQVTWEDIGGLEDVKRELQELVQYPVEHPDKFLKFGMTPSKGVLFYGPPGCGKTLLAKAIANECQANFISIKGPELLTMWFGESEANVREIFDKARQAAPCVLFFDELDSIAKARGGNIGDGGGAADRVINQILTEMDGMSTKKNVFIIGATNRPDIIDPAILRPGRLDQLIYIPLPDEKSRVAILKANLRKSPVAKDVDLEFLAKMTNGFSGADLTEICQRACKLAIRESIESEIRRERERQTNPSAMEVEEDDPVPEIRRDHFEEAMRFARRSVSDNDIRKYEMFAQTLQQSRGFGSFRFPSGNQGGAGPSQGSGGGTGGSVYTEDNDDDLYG
Procedure: Sensitivity of p97 to limited trypsin digestion in the presence and absence of EerI was tested to determine whether binding of EerI to p97 could alter p97 conformation. The purified p97 protein (1.5 μg) was incubated at in a buffer containing 200 ng trypsin in 50 μl volume. Samples were taken out at different time points and mixed with the Laemmli buffer before SDS-PAGE and silver staining analyses.

[7] = system: GFPμ; experiment: Stabilization of soluble p97 substrate GFPμ in 293T cells; type: cell-based; conditions: 10 μM
Procedure: The experiments are performed as described above for TCRα-YFP, except that 293 T cells stably expressing GFP are used.

[8] = molecular target: T2, membrane associated p97 (Homo sapiens, UniProt P55072); experiment: Membrane/cytosol fractionation and p97 immunoblot in 293T cells; type: cell-based; conditions: 10 μM, 6 hr, membrane and cytosol fractions
T2 construct: endogenous in cells; host or cells: 293T cells
T2 sequence (P55072 2-806 limits assumed): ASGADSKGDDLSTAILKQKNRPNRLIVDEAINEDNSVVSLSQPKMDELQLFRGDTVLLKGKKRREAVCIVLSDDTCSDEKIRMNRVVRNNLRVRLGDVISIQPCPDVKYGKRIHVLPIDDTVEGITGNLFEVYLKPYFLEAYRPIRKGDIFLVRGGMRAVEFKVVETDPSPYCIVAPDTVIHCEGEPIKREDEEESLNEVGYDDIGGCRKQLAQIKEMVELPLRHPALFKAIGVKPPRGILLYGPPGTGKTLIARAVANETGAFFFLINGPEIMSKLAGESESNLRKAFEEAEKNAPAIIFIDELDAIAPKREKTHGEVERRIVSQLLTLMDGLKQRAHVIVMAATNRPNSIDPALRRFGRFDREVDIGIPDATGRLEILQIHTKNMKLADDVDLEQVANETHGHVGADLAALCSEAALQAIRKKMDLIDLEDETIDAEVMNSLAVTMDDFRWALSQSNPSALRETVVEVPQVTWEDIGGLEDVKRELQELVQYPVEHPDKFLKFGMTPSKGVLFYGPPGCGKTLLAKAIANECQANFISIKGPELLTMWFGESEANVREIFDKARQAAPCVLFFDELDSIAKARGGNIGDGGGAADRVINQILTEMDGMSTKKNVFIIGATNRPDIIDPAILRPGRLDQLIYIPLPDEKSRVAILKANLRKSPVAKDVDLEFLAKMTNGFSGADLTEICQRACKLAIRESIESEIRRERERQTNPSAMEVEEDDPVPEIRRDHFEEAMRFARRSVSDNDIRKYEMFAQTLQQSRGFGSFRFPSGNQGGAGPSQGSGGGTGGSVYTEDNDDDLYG
Procedure: Cells were fractionated into membrane and cytosol fractions. Proteins extracted from these fractions were analyzed by immunoblotting with antibodies to p97, E1, and Sec61β, and ER-resident protein as shown in FIG. 2 e.

[9] = system: JEKO-1 cells stably transfected with shRNAs to luciferase or NOXA; experiment: Effect of NOXA shRNA on cytotoxicity in JEKO-1 cells (MTT); type: cell-based; conditions: JEKO-1 shLuc vs shNoxa, 24 hours
Procedure: The effect of NOXA on cytotoxicity of CBU-028, EERI, or bortezomib is determined. FIG. 4 presents graphs comparing CBU-028, EERI, and bortezomib with respect to percent cell viability as a function of concentration, measured using JEKO-1 cells stably transfected with shRNAs to luciferase (shLuc, control, ▪) or NOXA (shNoxa, ◯, sequence: [NT]) after treatment with the compound for 24 hrs, with viability determined with MTT as described above and normalized to the untreated control.

[10] = molecular target: p97 ATPase (Homo sapiens, UniProt P55072); experiment: In vitro ATPase activity of p97; type: biochemical; conditions: data not shown
Sequence of p97 ATPase (P55072 whole entry): as the sequence (P55072 whole entry) above
Procedure: To understand how EerI binding might affect p97 function, in vitro ATPase activity of p97 in the presence of EerI was measured. No effect of EerI on the p97 ATPase activity was found (data not shown).

[11] = system: primary chronic lymphocytic leukemia (CLL) cells or normal peripheral blood mononuclear cells (PBMC); experiment: Cytotoxic activity against primary cells (MTT); type: cell-based; conditions: 5×10e6 cells/ml, 48 hrs
Procedure: The cytotoxic activity of CBU-028 or EERI against primary cells is determined as a function of concentration. Cell viability of primary chronic lymphocytic leukemia (CLL) cells or normal peripheral blood mononuclear cells (PBMC) at a concentration of 5×10e6 cells/ml is determined after treatment with CBU-028 or EERI for 48 hrs in triplicates. Viability is determined using the MTT assay, as described previously, with data normalized to the untreated control.

[12] = molecular target: T3, recombinant wild type p97 (Homo sapiens, UniProt P55072); experiment: Surface plasmon resonance binding to recombinant p97; conditions: SPR, 25° C., recombinant p97 purified from E. coli; read-out: estimated Kd
T3 construct: made in house; host or cells: E. coli
T3 sequence (P55072 whole entry): as above
Procedure: The strength of EerI binding to recombinant p97 purified from E. coli was tested using surface plasma resonance (SPR). Surface plasmon resonance interaction experiments were carried out at 25° C. on a Biacore T100 system (GE healthcare). […] Briefly, the carboxymethyl group of dextran was activated with N-ethyl-N′-(3-dimethylaminopropyl)carbodiimide (EDC) and N-hydroxysuccinimide (NHS). Then, p97 in a 10 mM sodium acetate (pH 4.5) buffer was injected at a flow rate of 10 μl/min with 2 min contact time and immobilized at a level of ˜8,000 RU. Any remaining reactive sites in the flow cell were blocked by ethanolamine. The drug association and dissociation were monitored at a flow rate of […] with the analyte concentration ranging from 3.125 μM to 50 μM in a buffer containing 10 mM HEPES (pH 7.4), 150 mM NaCl, 0.005% v/v Surfactant P20. Regeneration of the chip was achieved by extended washing with the analyte buffer. SPR signal was normalized using a reference flow cell containing no p97. […] The Rmax was then calculated, and the binding relative to the Rmax from three independent experiments was averaged. […]
The affinity of CBU-028, EERI, and compound 5138380 to purified p97 is measured by surface plasmon resonance (SPR). […] Association and dissociation of the compounds are monitored at a flow rate of 20 μL/min at concentrations ranging from 1.6 μM to 100 μM. […]

[13] = system: heat shock protein Hsp70; experiment: Avidin bead pull-down of Hsp70 with immobilized B-NFC; type: binding; conditions: avidin beads
[14] = molecular target: T1, p97; experiment: Avidin bead pull-down of p97 with immobilized B-NFC; type: binding; conditions: monomeric avidin beads, biotin beads as negative control
[15] = molecular target: N-ethylmaleimide-sensitive factor (NSF) (Homo sapiens, UniProt P46459); experiment: Avidin bead pull-down of NSF with immobilized B-NFC; type: binding; conditions: avidin beads
Sequence of N-ethylmaleimide-sensitive factor (NSF) (P46459 whole entry, species assumed): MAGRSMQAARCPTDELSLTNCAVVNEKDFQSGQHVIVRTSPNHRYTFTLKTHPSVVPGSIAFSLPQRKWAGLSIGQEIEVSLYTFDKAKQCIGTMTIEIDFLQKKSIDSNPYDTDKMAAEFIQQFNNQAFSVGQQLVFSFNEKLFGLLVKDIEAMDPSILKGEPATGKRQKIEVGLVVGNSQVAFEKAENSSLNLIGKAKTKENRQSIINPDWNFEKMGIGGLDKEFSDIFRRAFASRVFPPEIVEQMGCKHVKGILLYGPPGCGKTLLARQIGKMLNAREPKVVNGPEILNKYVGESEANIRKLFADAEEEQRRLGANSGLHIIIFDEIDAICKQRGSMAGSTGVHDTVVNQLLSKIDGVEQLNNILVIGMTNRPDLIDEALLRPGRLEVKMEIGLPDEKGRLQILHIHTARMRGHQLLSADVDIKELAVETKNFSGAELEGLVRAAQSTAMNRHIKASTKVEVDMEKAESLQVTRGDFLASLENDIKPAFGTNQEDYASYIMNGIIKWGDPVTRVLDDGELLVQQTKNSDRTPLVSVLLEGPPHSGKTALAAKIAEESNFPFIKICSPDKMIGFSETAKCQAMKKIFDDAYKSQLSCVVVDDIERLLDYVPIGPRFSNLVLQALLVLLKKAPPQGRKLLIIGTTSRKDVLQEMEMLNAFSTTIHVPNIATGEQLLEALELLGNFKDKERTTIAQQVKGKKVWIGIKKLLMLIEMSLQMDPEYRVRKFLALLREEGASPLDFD

[16] = system: JEKO-1 cells; experiment: cells; conditions: Homo sapiens, JeKo-1, 48 h, JEKO-1 cells, incubated 2 days, MTT, four parameter logistic fit
[17] = system: CLL cells; experiment: Synergy of CBU-028 with bortezomib against CLL cells (MTT); type: cell-based; conditions: fixed molar relation 1:2000 (BZM:CBU-028), 48 hours
Procedure: FIG. 6. […] To test for synergy between BZM and CBU-028, CLL cells were incubated in-vitro to increasing concentrations of each compound individually as well as to a combination of both drugs. The combination was tested at a fixed molar relation of 1:2000, e.g. 4 nM BZM was combined with 8 uM CBU-028. 5×10^6 cells/mL were incubated for 48 hours and cell viability was measured with MTT. Synergy is found where the effect of the combination of the two compounds exceeds the additive effect of each compound separately. The left graph shown the result of a representative experiment (CLL—4235) across all concentrations tested. The graph on the right summarizes the data for 7 individual CLL patients.

Sequence of p97 mutants (p97ΔN, p97ΔD2) (P55072 209-458 limits assumed, stated change not applied): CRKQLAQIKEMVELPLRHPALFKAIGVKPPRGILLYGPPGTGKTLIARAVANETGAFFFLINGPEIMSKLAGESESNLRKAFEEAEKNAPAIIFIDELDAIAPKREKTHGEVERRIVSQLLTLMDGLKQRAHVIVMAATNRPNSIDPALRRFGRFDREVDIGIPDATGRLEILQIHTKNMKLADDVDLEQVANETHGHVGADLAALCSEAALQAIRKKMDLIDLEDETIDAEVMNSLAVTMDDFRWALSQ

In the case of 5-nitrofuryl-acrolein, the “binding of p97 mutants to immobilized compound” value [1] is reported as “also bound”, the “cell viability / cytotoxic activity (in words)” value [2] is reported as “cytotoxic activity at a concentration lower than that shown by EERI” and the “number of genes up- or down-regulated by at least 2-fold by both EerI and 5-NA” value [3] is reported as 29 genes. The “number of genes up- or down-regulated by at least 2-fold only by this compound” value [3] was 306 genes and the “expression level of ATF3, ATF4 and NOXA” value ([4]; 2.5 μM) was “comparable to that present after treatment with EERI”.
With CC1(C)C(N(O)C(=O)Nc2ccc(C(F)(F)F)cc2)N(c2ccc(Cl)cc2)C(=O)N1CC(=O)N/N=C/C=C/c1ccc([N+](=O)[O-])o1 (stereo not shown) [CBU-003] the “stabilization of ERAD substrate TCRα-YFP” value [5] was “stabilize the ERAD substrate TCRα-YFP in polyubiquitinated forms”, the “sensitivity of p97 to limited trypsin digestion” value [6] was “caused a delay in the proteolysis of two p97 fragments by trypsin” and the “stabilization of soluble p97 substrate GFPμ” value [7] was “stabilize the soluble p97 substrate GFPμ in polyubiquitinated forms”. The IC50 ([2]; JEKO-1 cells, incubated 2 days, MTT, four parameter logistic fit) was 3.5 µM, the “location of slow migrating (oligomerized) p97 species induced by compound” value [8] was “primarily in the membrane fraction, not in the cytosol fraction” and the “requirement of NOXA for cytotoxicity” value [9] was “Noxa is equally required”. The “effect on p97 ATPase activity” value [10] was “No effect”, the “number of genes up- or down-regulated by at least 2-fold by both EerI and 5-NA” value [3] was 29 genes and the “number of genes up- or down-regulated by at least 2-fold only by this compound” value [3] was 25 genes. The “sensitivity of PBMC compared with CLL cells” value [11] was “PBMC are less sensitive”, the “expression level of ATF3, ATF4 and NOXA” value ([4]; 10 μM) was “comparable to that present after treatment with EERI” and the Kd [12] was 5 to 10 µM.
With O=C(CCCC[C@@H]1SCC2NC(=O)NC21)N/N=C/C=C/c1ccc([N+](=O)[O-])o1 (stereo partly drawn) [CBU-032, (E)-N′-((E)-3-(5-nitrofuran-2-yl)allylidene)-5-((4S)-2-oxohexahydro-1H-thieno[3,4-d]imidazol-4-yl)pentanehydrazide] the “binding of Hsp70 to immobilized compound” value [13] was “neither the heat shock protein Hsp70, nor the homologous AAA ATPase, N-ethylmaleimide-sensitive factor (NSF), showed significant binding”, the “precipitation of p97 by immobilized compound” value [14] was “consistently precipitated more p97, than biotin” and the “binding of NSF to immobilized compound” value [15] was “neither the heat shock protein Hsp70, nor the homologous AAA ATPase, N-ethylmaleimide-sensitive factor (NSF), showed significant binding”. It also gave an IC50 [16] of 25 µM.
With O=C(N/N=C/C=C/c1ccc([N+](=O)[O-])o1)c1cc2ccccc2cc1O [CBU-028, (E)-3-hydroxy-N′-((E)-3-(5-nitrofuran-2-yl)allylidene)-2-naphthohydrazide] the “stabilization of ERAD substrate TCRα-YFP” value [5] was “stabilize the ERAD substrate TCRα-YFP in polyubiquitinated forms”, the “stabilization of soluble p97 substrate GFPμ” value [7] was “stabilize the soluble p97 substrate GFPμ in polyubiquitinated forms” and the synergy with bortezomib [17] was “Synergizes with Bortezomib”. For the same compound, the “requirement of NOXA for cytotoxicity” value [9] was “Noxa is equally required”, the “sensitivity of PBMC compared with CLL cells” value [11] was “PBMC are less sensitive” and the IC50 [16] was 3 µM. The NOXA protein level ([4]; 10 μM, time course) was “upregulates NOXA protein level”, the “expression of ER stress markers ATF3 and ATF4” value ([4]; 10 μM, time course) was “induces expression of the ER stress markers ATF3 and ATF4” and the polyubiquitinated proteins ([4]; 10 μM, time course) was “causes accumulation of polyubiquitinated proteins”. For the same compound, the “ubiquitinated histone H2A” value ([4]; 10 μM, time course) was “downregulates ubiquitinated histone H2A”.
